Experiments:
[1] = test system: on-target and off-target genomic loci (NF2, NF1, MED12 and other top-ranking genes); test: Deep sequencing of on-target and off-target loci for allele modification in A375 cells; type: cell-based, human; conditions: 7 and 14 days post-transduction
Description: Applicants validated top ranking genes from the GeCKO screen individually using 3-5 sgRNAs (FIGS. 28C-E, 38, 39). […] Applicants compared sgRNA and shRNA-mediated protein depletion and PLX resistance using Western blot (FIG. 28D) and cell growth assays (FIG. 28E). […] Additionally, sgRNAs targeting NF1, MED12, CUL3, TADA1, and TADA2B led to a decrease in protein expression and increased resistance to PLX (FIGS. 38, 39).
Screening timeline considerations: After infection, cells are selected with puromycin. For most cell types, 0.5-2 ug/ml puromycin works well, although the minimum dose that kills all cells without any viral transduction should be determined in advance and the minimum concentration should be used for selection. […] As shown in the deep sequencing of the individual target (array) validations from the PLX resistance screen gene hits, genome modification increases over time. For most targets, genome modification was nearly complete after only 7 days.
Sequencing data analysis and indel detection: Off target loci in the human genome were identified for individual spacers using the CRISPR design tool (available at the website tools.genome-engineering.org). On-target and off-target loci were PCR amplified using Herculase II Fusion polymerase (Agilent), normalized, and pooled in equimolar proportions. Pooled libraries were denatured, diluted to a 14 pM concentration and sequenced using the MiSeq Personal Sequencer (Illumina). Sequencing data was demultiplexed using paired barcodes, aligned to reference amplicons, and analyzed for indels as described previously. Indel length analysis was performed by mapping the distance between multiple short reference sequences in individual reads.

human EMX1 locus = test: Surveyor nuclease assay for genome modification at the human EMX1 locus in HEK 293FT cells; type: cell-based; conditions: co-expression with EMX1-targeting chimeric crRNA, n=3
Description: Mouse neuro2A (N2A) cell line (ATCC) was maintained with DMEM supplemented with 5% fetal bovine serum (HyClone), 2 mM GlutaMAX (Life Technologies), 100 U/mL penicillin, and 100 μg/mL streptomycin at 37° C. with 5% CO2.
Cells were transfected using Lipofectamine 2000 (Life Technologies) following the manufacturer's recommended protocol. For each well of a 24-well plate a total of 800 ng of plasmids were used.
Genomic DNA was extracted using the QuickExtract DNA extraction kit (Epicentre) following the manufacturer's protocol. […] Extracted genomic DNA was immediately processed or stored at −20° C.
The genomic region surrounding a CRISPR target site for each gene was PCR amplified, and products were purified using QiaQuick Spin Column (Qiagen) following manufacturer's protocol. […] After re-annealing, products were treated with Surveyor nuclease and Surveyor enhancer S (Transgenomics) following the manufacturer's recommended protocol, and analyzed on 4-20% Novex TBE poly-acrylamide gels (Life Technologies). […] Quantification was based on relative band intensities, as a measure of the fraction of cleaved DNA.

Substance: MED12_sg2: sgRNA 20 bp sequence CGTCAGCTTCAATCCTGCCA (expressed or natural sequence)
- off-target modification over time [1]: off-target modification also increases with time

Substance: NF2_sg4: sgRNA 20 bp sequence GTACTGCAGTCCAAAGAACC (expressed or natural sequence)
- off-target modification over time [1]: off-target modification also increases with time

Substance: NF2_sg5: sgRNA 20 bp sequence CACAGTGGCCTGGCTCAAAA (expressed or natural sequence)
- on-target genome modification over time [1]: lower modification that increased by 14 days post-transduction

Substance: SpCas9n: SpCas9 nickase with aspartate-to-alanine substitution (D10A) in the RuvC I catalytic domain
- indels at the EMX1 protospacer target (Surveyor assay) (human EMX1 locus): does not generate indels

— patent US10781444B2, “Functional genomics using CRISPR-Cas systems, compositions, methods, screens and applications thereof” (THE BROAD INSTITUTE, INC., priority 2013, dated 2020)
